Experimental findings from US12344610B2, “APOL1 inhibitors and methods of use” (Maze Therapeutics, Inc., priority 2022, dated 2025) are described below.

Holding throughout (assay type): cell-based
Holding throughout (conditions): geometric mean of at least 2 assay runs, † = single assay run

The subject of experiment [1] is HEK293 cells overexpressing APOL1 G2. In words: APOL1 G2 HEK293 cell rescue assay (reversal of cell death caused by overexpression of APOL1). An outline of the steps: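 Each compound tested in duplicate wells on one plate per run, with values usually the geometric mean across at least two runs on different days, occasionally from one run only. Read-out: concentration giving half-maximal rescue of APOL1 G2 overexpression-induced death of HEK293 cells.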

Experiment [2] has as its system Trypanosoma brucei Lister 427 VSG221 with APOL1 G1 recombinant protein. Put plainly: APOL1 G1 trypanosome cell rescue assay (Example B5). An outline of the steps:
(§1)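 Recombinant APOL1 protein, dispensed from a 2 μg/mL stock, and 250 T. brucei per well were co-incubated with test compound (0.4% DMSO) for 20 h. Viability: CellTiter-Glo luminescence.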

Experiment [3] deals with Trypanosoma brucei Lister 427 VSG221 with APOL1 G2 recombinant protein. Put plainly: APOL1 G2 trypanosome cell rescue assay (Example B5). The essentials: as §1
Where [4] appears, read: Homo sapiens, HEK293, HEK293 overexpressing APOL1 G2.
Where [5] appears, read: Trypanosoma brucei, 20 h, read-out: APOL1 G1 Trypanosome Rescue EC50, Trypanosoma brucei Lister 427 VSG221 with APOL1 G1 recombinant protein, 20 hours, CellTiter-Glo.
The mark [6] stands for this setting: Trypanosoma brucei, 20 h, read-out: APOL1 G2 Trypanosome Rescue EC50, Trypanosoma brucei Lister 427 VSG221 with APOL1 G2 recombinant protein, 20 hours, CellTiter-Glo.
Setting [7] is: read-out: APOL1 G1 Trypanosome Rescue EC50, Trypanosoma brucei Lister 427 VSG221 with APOL1 G1 recombinant protein, 20 hours, CellTiter-Glo.
Where [8] appears, read: read-out: APOL1 G2 Trypanosome Rescue EC50, Trypanosoma brucei Lister 427 VSG221 with APOL1 G2 recombinant protein, 20 hours, CellTiter-Glo.

The structures appear in SMILES notation. Like-named read-outs stand apart in the source and are kept apart here.

A word on the EC50: it is the concentration needed to bring the measured effect to its halfway point. With `Cn1c(=O)[nH]c2cc(OCCN3CCC4(CC3)C(=O)Nc3ccc(Cl)cc34)ccc21` [Compound 88, 5-chloro-1′-{2-[(1-methyl-2-oxo-2,3-dihydro-1H-1,3-benzodiazol-5-yl)oxy]ethyl}-1,2-dihydrospiro[indole-3,4′-piperidin]-2-one], the concentration for a half-maximal effect (EC50) turned out to be 121 nM in experiment [1] (setting [4]), 561 nM in experiment [2] (setting [5]) and 138 nM in experiment [3] (setting [6]).

Take `CS(=O)(=O)C1(c2c(F)cc(OCCN3CCC4(CC3)C(=O)Nc3ccc(C#N)cc34)cc2F)COC1` [Compound 84, 1′-{2-[3,5-difluoro-4-(3-methanesulfonyloxetan-3-yl)phenoxy]ethyl}-2-oxo-1,2-dihydrospiro[indole-3,4′-piperidine]-5-carbonitrile]: the EC50 in experiment [1] (setting [4]) was found to be 64.9 nM; in experiment [2] (setting [5]), 144 nM; in experiment [3] (setting [6]), 50 nM.

For `C[C@]1(O)C[C@@H](n2c(=O)cnc3cc(OCCN4CCC5(CC4)C(=O)Nc4ccc(Cl)cc45)cnc32)C1` [Compound 358, 5-chloro-1′-[2-({3-oxo-4-[(cis)-3-hydroxy-3-methylcyclobutyl]-3H,4H-pyrido[2,3-b]pyrazin-7-yl}oxy)ethyl]-1,2-dihydrospiro[indole-3,4′-piperidin]-2-one], the figures for the EC50 in experiment [1] (setting [4]), in experiment [2] (setting [5]) and in experiment [3] (setting [6]) were 65 nM, 75.2 nM and 31.3 nM, respectively.

Turning to `CC(O)c1ncc(OCCN2CCC3(CC2)C(=O)Nc2ccc(C#N)cc23)cc1C(F)(F)F` (single isomer, unassigned) [Compound 377, 1′-[2-({6-(1S) or (1R)-1-hydroxyethyl]-5-(trifluoromethyl)pyridin-3-yl}oxy)ethyl]-2-oxo-1,2-dihydrospiro[indole-3,4′-piperidine]-5-carbonitrile], the figures for the EC50 in experiment [1] (HEK293 overexpressing APOL1 G2), in experiment [2] (setting [7]) and in experiment [3] (setting [8]) were 85.9 nM, 271 nM and 97.8 nM, respectively.

As for `CC(C)N1C(=O)CCc2cc(OCCN3CCC4(CC3)C(=O)Nc3ccc(C#N)cc34)ccc21` [Compound 96, 2-oxo-1′-(2-{[2-oxo-1-(propan-2-yl)-1,2,3,4-tetrahydroquinolin-6-yl]oxy}ethyl)-1,2-dihydrospiro[indole-3,4′-piperidine]-5-carbonitrile], the EC50 in experiment [1] (setting [4]) is 50.5 nM; in experiment [2] (setting [5]), 143 nM; in experiment [3] (setting [6]), 53 nM.

In the case of `O=C1Nc2ccc(Cl)cc2C12CCN(CCOc1ccc3c(cnn3[C@H]3C[C@@H](O)C3)c1)CC2` [Compound 85, 5-chloro-1′-[2-({1-[(cis)-3-hydroxycyclobutyl]-1H-indazol-5-yl}oxy)ethyl]-1,2-dihydrospiro[indole-3,4′-piperidin]-2-one], the EC50 in experiment [1] (setting [4]) is 70.3 nM; in experiment [2] (setting [5]), 190 nM; in experiment [3] (setting [6]), 48.5 nM.

Consider `CC1(O)CN(c2ncc(OCCN3CCC4(CC3)C(=O)Nc3ccc(C(F)F)cc34)cn2)C1` [Compound 395, 5-(difluoromethyl)-1′-(2-{[2-(3-hydroxy-3-methylazetidin-1-yl)pyrimidin-5-yl]oxy}ethyl)-1,2-dihydrospiro[indole-3,4′-piperidin]-2-one], for which the EC50 in experiment [1] (setting [4]) stood at 86.8 nM; in experiment [2] (setting [5]) it was 312 nM; in experiment [3] (setting [6]) it was 106 nM.

Turning to `O=C1Nc2ccc(Cl)cc2C12CCN(CCOc1ccc3[nH]ncc3c1)CC2` [Compound 87, 5-chloro-1′-[2-(2H-indazol-5-yloxy)ethyl]-1,2-dihydrospiro[indole-3,4′-piperidin]-2-one], the EC50 in experiment [1] (setting [4]) was found to be 103 nM; in experiment [2] (setting [5]), 383 nM; in experiment [3] (setting [6]), 95.8 nM.

`O=C1CCc2cc(OCCN3CCC4(CC3)C(=O)Nc3ccc(Cl)cc34)ccc2N1` [Compound 82, 5-chloro-1′-{2-[(2-oxo-1,2,3,4-tetrahydroquinolin-6-yl)oxy]ethyl}-1,2-dihydrospiro[indole-3,4′-piperidin]-2-one]: the values for the EC50 in experiment [1] (setting [4]), in experiment [2] (setting [5]) and in experiment [3] (setting [6]) were 72.2 nM, 344 nM and 113 nM, respectively.

Turning to `CS(=O)(=O)N(CCO)c1ccc(OCCN2CCC3(CC2)C(=O)Nc2ccc(Cl)cc23)cc1` [Compound 98, N-[4-(2-{5-chloro-2-oxo-1,2-dihydrospiro[indole-3,4′-piperidin]-1′-yl}ethoxy)phenyl]-N-(2-hydroxyethyl)methanesulfonamide], the EC50 is 54.4 nM in experiment [1] (setting [4]), 259 nM in experiment [2] (setting [5]) and 72.2 nM in experiment [3] (setting [6]).

Regarding `CC(O)c1ncc(OCCN2CCC3(CC2)C(=O)Nc2ccc(C#N)cc23)cc1C(F)(F)F` (single isomer, unassigned) [Compound 376, 1′-[2-({6-[(1S) or (1R)-1-hydroxyethyl]-5-(trifluoromethyl)pyridin-3-yl}oxy)ethyl]-2-oxo-1,2-dihydrospiro[indole-3,4′-piperidine]-5-carbonitrile], the figures for the EC50 in experiment [1] (setting [4]), in experiment [2] (setting [7]) and in experiment [3] (setting [8]) were 46.9 nM, 115 nM and 39.9 nM, respectively.

`O=C1CCc2cc(OCCN3CCC4(CC3)C(=O)Nc3ccc(Cl)cc34)cnc2N1[C@H]1C[C@H](O)C1` [Compound 267, 5-chloro-1′-[2-({7-oxo-8-[(trans)-3-hydroxycyclobutyl]-5,6,7,8-tetrahydro-1,8-naphthyridin-3-yl}oxy)ethyl]-1,2-dihydrospiro[indole-3,4′-piperidin]-2-one]: the EC50 in experiment [1] (setting [4]) came out at 37.8 nM; in experiment [2] (setting [5]), 115 nM; in experiment [3] (setting [6]), 33.7 nM.

Regarding `O=C1Nc2ccc(Cl)cc2C12CCN(CCOc1ccc3c(cnn3[C@H]3C[C@H](O)C3)c1)CC2` [Compound 86, 5-chloro-1′-[2-({1-[(trans)-3-hydroxycyclobutyl]-1H-indazol-5-yl}oxy)ethyl]-1,2-dihydrospiro[indole-3,4′-piperidin]-2-one], the figures for the EC50 in experiment [1] (setting [4]), in experiment [2] (setting [5]) and in experiment [3] (setting [6]) were 46.5 nM, 137 nM and 38.4 nM, respectively.

`CS(=O)(=O)N1CCc2cc(OCCN3CCC4(CC3)C(=O)Nc3ccc(Cl)cc34)ccc2C1` [Compound 94, 5-chloro-1′-{2-[(2-methanesulfonyl-1,2,3,4-tetrahydroisoquinolin-6-yl)oxy]ethyl}-1,2-dihydrospiro[indole-3,4′-piperidin]-2-one]: the figures for the EC50 in experiment [1] (setting [4]), in experiment [2] (setting [5]) and in experiment [3] (setting [6]) were 140 nM, 424 nM and 129 nM, respectively.

Regarding `CC1(S(=O)(=O)c2ccc(OCCN3CCC4(CC3)C(=O)Nc3ccc(C#N)cc34)cc2)COC1` [Compound 93, 1′-(2-{4-[(3-methyloxetan-3-yl)sulfonyl]phenoxy}ethyl)-2-oxo-1,2-dihydrospiro[indole-3,4′-piperidine]-5-carbonitrile], the EC50 in experiment [1] (setting [4]) was found to be 90.9 nM; in experiment [2] (setting [5]) it was 264 nM; in experiment [3] (setting [6]), 56.9 nM.

On to `CS(=O)(=O)c1c(F)cc(OCCN2CCC3(CC2)C(=O)Nc2ccc(Cl)cc23)cc1F` [Compound 89, 5-chloro-1′-[2-(3,5-difluoro-4-methanesulfonylphenoxy)ethyl]-1,2-dihydrospiro[indole-3,4′-piperidin]-2-one], for which the values for the EC50 in experiment [1] (setting [4]), in experiment [2] (setting [5]) and in experiment [3] (setting [6]) were 55.7 nM, 114 nM and 32.7 nM, respectively.

With `COC(=O)C1(S(=O)(=O)c2ccc(OCCN3CCC4(CC3)C(=O)Nc3ccc(Cl)cc34)cc2)CC1` [Compound 91, methyl 1-[4-(2-{5-chloro-2-oxo-1,2-dihydrospiro[indole-3,4′-piperidin]-1′-yl}ethoxy)benzenesulfonyl]cyclopropane-1-carboxylate], the EC50 in experiment [1] (setting [4]) amounted to 24.5 nM; in experiment [2] (setting [5]), 82.7 nM; in experiment [3] (setting [6]), 20.4 nM.

Regarding `CS(=O)(=O)C1(c2ncc(OCCN3CCC4(CC3)C(=O)Nc3ccc(OC(F)F)cc34)cn2)CC1` [Compound 6, 5-(difluoromethoxy)-1′-(2-{[2-(1-methanesulfonylcyclopropyl)pyrimidin-5-yl]oxy}ethyl)-1,2-dihydrospiro[indole-3,4′-piperidin]-2-one], the EC50 in experiment [1] (setting [4]) was determined as 121 nM; in experiment [2] (setting [5]), 470 nM; in experiment [3] (setting [6]), 137 nM.

Turning to `CS(=O)(=O)C1(c2ccc(OCCN3CCC4(CC3)C(=O)Nc3ccc(Cl)cc34)cc2)CC(O)C1` (stereo not drawn) [Compound 269, 5-chloro-1′-(2-{4-[(cis) or (trans)-3-hydroxy-1-methanesulfonylcyclobutyl]phenoxy}ethyl)-1,2-dihydrospiro[indole-3,4′-piperidin]-2-one], the figures for the EC50 in experiment [1] (HEK293 overexpressing APOL1 G2), in experiment [2] (setting [7]) and in experiment [3] (setting [8]) were 102 nM, 277 nM and 79.7 nM, respectively.

Consider `CC1(S(=O)(=O)c2ccc(OCCN3CCC4(CC3)C(=O)Nc3ccc(Cl)cc34)cc2)COC1` [Compound 92, 5-chloro-1′-(2-{4-[(3-methyloxetan-3-yl)sulfonyl]phenoxy}ethyl)-1,2-dihydrospiro[indole-3,4′-piperidin]-2-one], for which the results for the EC50 in experiment [1] (setting [4]), in experiment [2] (setting [5]) and in experiment [3] (setting [6]) were 51.5 nM, 99.3 nM and 28.5 nM, respectively.
